Results from patent publication US10377694B2, “Bi-aromatic propynyl compounds, pharmaceutical and cosmetic compositions containing them and uses thereof” (GALDERMA RESEARCH & DEVELOPMENT, priority 2016, dated 2019).

How the values were obtained:
Assay in all cases: Transactivation test (apparent Kd by Schild regression versus reference antagonist), luciferase reporter in HeLa cells
Type in all cases: cell-based
RAR beta = target: T1, RAR beta (Homo sapiens, UniProt P10826); conditions: HeLa stable transfectants ERE-βGlob-Luc-SV-Neo and RAR beta ER-DBD-puro, 18 hours incubation, read-out: RAR beta Kdapp
T1 sequence (P10826 183-417 limits assumed): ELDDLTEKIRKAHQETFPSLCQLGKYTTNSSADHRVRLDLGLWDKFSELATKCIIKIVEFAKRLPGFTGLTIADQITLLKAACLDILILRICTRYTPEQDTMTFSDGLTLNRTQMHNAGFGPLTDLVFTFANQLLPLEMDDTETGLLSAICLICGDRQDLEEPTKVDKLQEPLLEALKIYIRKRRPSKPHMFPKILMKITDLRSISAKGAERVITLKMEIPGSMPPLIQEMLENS
Protocol: (§1) Activation of receptors by an agonist (activator) in HeLa cells leads to the expression of a reporter gene, luciferase, which generates light in the presence of a substrate. Therefore the activation of receptors can be measured by quantifying the luminescence produced after incubation of the cells in the presence of a reference antagonist. The activator products displace the antagonist from its site, thus permitting the receptor to be activated. The activity is measured by quantifying the increase in light produced. This measurement determines the activating activity of the useful compound in the invention.
(§2) In this study, a constant is determined that represents the affinity of the molecule for the receptor. This value can fluctuate according to the basal activity and expression of the receptor; it is designated apparent Kd (KdApp).
(§3) To determine this constant, cross curves are created of the product to be tested (4′-(3-hydroxy-propyl)-3′-(5,5,8,8-tetramethyl-5,6,7,8-tetrahydro-naphthalen-2-yl)-biphenyl-4-carboxylic acid and 4′-(2,3-dihydroxy-propyl)-3′-(5,5,8,8-tetramethyl-5,6,7,8-tetrahydro-naphtalen-2-yl)-biphenyl-4-carboxylic) acid versus a reference antagonist also called reference ligand, 4-(5,5-dimethyl-8-p-tolyl-5,6-dihydro-naphthalen-2-ylethynyl)-benzoic acid. The product to be tested is used at 10 concentrations and the reference antagonist at 7 concentrations. In each well (of a 96-well plate), the cells are in contact with one concentration of the product to be tested and one concentration of the reference antagonist.
(§4) Full agonist controls, also called 100% controls, (4-[2-(5,5,8,8 tetramethyl-5,6,7,8 tetrahydronaphthalene-2-yl)propenyl]-benzoic acid) and inverse agonist controls, also called 0% controls, (4-{(E)-3-[4-(4-tert-butyl-phenyl)-5,5,8,8-tetramethyl-5,6,7,8-tetrahydro-naphthalen-2-yl]-3-oxo-propenyl}-benzoic acid) are also measured.
(§5) These cross curves allow determining the AC50 (concentration at which 50% activation of the receptor is observed) of the reference ligand at different concentrations of the product to be tested. These AC50s are used to calculate the Schild regression by plotting a line conforming to the Schild equation (“Quantitation in receptor pharmacology” Terry P. Kenakin, Receptors and Channels, 2001, 7, 371-385).
(§6) In the case of an agonist, the AC50 is calculated by plotting the curve of the product at the concentration of the reference ligand giving 80% activation. The percentage of activation that corresponds to the maximum level of activity obtained is also measured.
(§7) The HeLa cell lines used are stable transfectants containing the plasmids ERE-βGlob-Luc-SV-Neo (reporter gene) and RAR (α, β, γ) ER-DBD-puro. These cells are inoculated onto 96-well plates in an amount of 10,000 cells per well in 100 μl DMEM medium with no phenol red and supplemented with 10% delipidated fetal bovine serum. The plates are then incubated at 37° C., 7% CO2 for 4 hours.
(§8) The different dilutions of the product to be tested, the reference ligand (4-(5,5-dimethyl-8-p-tolyl-5,6-dihydro-naphthalen-2-ylethynyl)-benzoic acid), the 100% control (100 nM 4-[2-(5,5,8,8 tetramethyl-5,6,7,8 tetrahydronaphthalene-2-yl)propenyl]-benzoic acid) and the 0% control (500 nM 4-{(E)-3-[4-(4-tert-butyl-phenyl)-5,5,8,8-tetramethyl-5,6,7,8-tetrahydro-naphthalen-2-yl]-3-oxo-propenyl}-benzoic acid) are added in an amount of 5 μl per well. The plates are then incubated 18 hours at 37° C., 7% CO2.
(§9) The culture medium is removed by turning over and 100 μl of a 1:1 PBS (phosphate buffer solution)/luciferin mixture is added to each well. After 5 minutes, the plates are read by the luminescence reader.

RAR alpha = target: T2, RAR alpha (Homo sapiens, UniProt P10276); conditions: HeLa stable transfectants ERE-βGlob-Luc-SV-Neo and RAR alpha ER-DBD-puro, 18 hours incubation, read-out: RAR alpha Kdapp
T2 sequence (P10276 183-417 limits assumed): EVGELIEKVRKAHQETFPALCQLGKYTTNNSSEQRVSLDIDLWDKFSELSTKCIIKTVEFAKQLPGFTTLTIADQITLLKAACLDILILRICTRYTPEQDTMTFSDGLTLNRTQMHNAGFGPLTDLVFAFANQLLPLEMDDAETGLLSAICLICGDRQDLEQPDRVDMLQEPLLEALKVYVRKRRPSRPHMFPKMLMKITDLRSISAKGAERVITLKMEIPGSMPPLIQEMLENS
Protocol: as §1, §2, §3, §4, §5, §6, §7, §8, §9

RAR gamma = target: T3, RAR gamma (Homo sapiens, UniProt P13631); conditions: HeLa stable transfectants ERE-βGlob-Luc-SV-Neo and RAR gamma ER-DBD-puro, 18 hours incubation, read-out: RAR gamma Kdapp
T3 sequence (P13631 185-454 limits assumed): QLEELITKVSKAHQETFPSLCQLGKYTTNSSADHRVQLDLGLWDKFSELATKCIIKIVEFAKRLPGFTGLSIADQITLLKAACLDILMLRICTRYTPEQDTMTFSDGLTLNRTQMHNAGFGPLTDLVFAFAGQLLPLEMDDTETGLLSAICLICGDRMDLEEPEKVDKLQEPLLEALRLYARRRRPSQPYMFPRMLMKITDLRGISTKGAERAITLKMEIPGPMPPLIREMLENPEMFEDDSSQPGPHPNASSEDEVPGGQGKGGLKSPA
Protocol: as §1, §2, §3, §4, §5, §6, §7, §8, §9

Work on `CC1(C)CCC(C)(C)c2c(OCC3CC3)cc(C#Cc3ccc(C(=O)O)cn3)cc21` [Compound 2] yielded a Kd (RAR beta) of 2 nM, a Kd (RAR alpha) of 30 nM and a Kd (RAR gamma) of 4 nM.
For `CC1(C)CCC(C)(C)c2c(O)cc(C#Cc3ccc(C(=O)O)c(O)c3)cc21` [Compound 1], the Kd (RAR beta) was 4 nM, the Kd (RAR alpha) was 120 nM and the Kd (RAR gamma) was 4 nM.
